Patent US20190314312A1, “COMBINATION THERAPY TO INCREASE ENDOGENOUS NITRIC OXIDE (NO) SYNTHESIS” (Yeda Research and Development Co. Ltd., priority 2016, published 2019)
Entries after “also recorded” stand apart in the source; their conditions may differ.

What was measured:
Type in all cases: in vivo, mouse
[1] = tested on: CD64+, CD11c+ macrophages; assay: FACS analysis of colon CD64+, CD11c+ macrophages after colitis induction; details: fisetin vs control, FIGS. 14D-F
Protocol: Colon segment was flushed with cold PBS, longitudinally cut open and rinsed to remove residual luminal contents. Tissue was cut into 3- to 5-mm pieces and incubated in HBSS medium containing EDTA 0.5 M and Hepes 10 mM at 37° C. for 20 minutes, shaken at 180 rpm, to separate epithelial fraction. Supernatant was centrifuged at 4° C. at 500 g for 10 minutes. Recovered tissue was digested in HBSS medium with 2% fetal bovine serum (FBS), 0.05% collagenase II and 0.05% DNase I (Sigma) for 40 minutes. at 37° C., shaken at 180 rpm. LP cells were filtered through 65 μm mesh and centrifuged at 4° C. at 500 g for 10 minutes. The present inventors prepared single cell suspensions from mouse colon by enzymatic digestion and analyzed by polychromatic flow cytometry. Samples were stained with conjugated antibodies or matching isotype controls according to manufacturer's instructions. Data were acquired on an LSRII (BD Biosciences) or FACSCalibur instrument (Becton-Dickinson) with CellQuest software, with a MacsQuant instrument (Miltenyi, Bergisch Gladbach, Germany), and analyzed using BD FACSDiva 6 or FlowJo software (version 7.6.5, or version vX.0.7 Tree Star Inc) or MacsQuant. Colon cells were stained for 30 min at 4° C. in flow cytometry buffer (PBS, 10% FCS and 0.02% azide). For antigens that require intracellular staining (As1, iNOS and S-nitrosocystein), cell surface staining was followed by cell fixation and permeabilization with the Cytofix/Cytoperm kit (BD Biosciences) according to the manufacturer's instructions. […] After staining for cell surface antigens, intracellular NO was detected by incubation of cells for 15 min at 37° C. with 10 μM DAF-FM diacetate followed by extensive washing, according to the manufacturer's instructions (Molecular Probes). […] As1 was detected using anti-As1-ALEXA FLUOR® 488 (BD Biosciences), iNOS using anti-iNOS followed by anti-rat 488 (Jackson ImmunoResearch), and nitrosylation using anti-S-nitrosocystein (from abcam) followed by anti-mouse 488 (Jackson ImmunoResearch).

As1 = assay: Immunohistochemistry staining of distal colon sections for As1; details: after colitis induction, vs control mice with colitis, FIG. 3E, 4A
Protocol: Four micrometer paraffin embedded tissue sections were deparaffinized and rehydrated. Endogenous peroxidase was blocked with three percent H2O2 in methanol. Sections undergoing for ALS staining were incubated in cold acetone at −20° C. for 7 minutes. For F4/80 and MAC-2 staining, the present inventors performed antigen retrieval in Tris-EDTA pH 9 and 10 mM citric acid pH 6, for 10 minutes, respectively, using a low boiling program in the microwave to break protein cross-links and unmask antigens. After pre-incubation with 20% normal horse serum and 0.2% Triton X-100 for 1 hour at RT (root temperature), sections were incubated with the primary antibodies as follow; ASL (1:100, Abcam, ab97370, CA, USA); F4/80 (1:50, Serotec, Kidllington, UK); Mac-2 (1:400, Cedarlane, N.C., USA). For fluorescent double-staining of ASL and CD11c the mouse anti ASL (1:50 Santa Cruz Biotechnology, Inc. sc-166787, TX, USA) and rabbit anti CD11c (1:50, ab52632) were used. All antibodies were diluted in PBS containing 2% normal horse serum and 0.2% Triton. Sections were incubated overnight at RT followed by 48 hours at 4° C. Sections were washed three times in PBS and incubated with secondary biotinylated IgG at RT (room temperature) for 1.5 hour, washed three times in PBS and incubated with avidin-biotin Complex (Elite-ABC kit, Vector Lab, CA, USA) at RT for additional 90 minutes followed by DAB (Sigma) reaction. For the fluorescent staining the CY2 conjugated anti mouse and CY3 conjugated streptavidin (1:100 and 1:200 respectively, Jackson ImmunoResearch, West Grove, Pa.) were used.

[2] = tested on: CD45+ immune system cells; assay: FACS analysis of colon CD45+ immune system cells after colitis induction; details: fisetin vs control after colitis induction, FIGS. 14A-C
Protocol: Colon segment was flushed with cold PBS, longitudinally cut open and rinsed to remove residual luminal contents. Tissue was cut into 3- to 5-mm pieces and incubated in HBSS medium containing EDTA 0.5 M and Hepes 10 mM at 37° C. for 20 minutes, shaken at 180 rpm, to separate epithelial fraction. Supernatant was centrifuged at 4° C. at 500 g for 10 minutes. Recovered tissue was digested in HBSS medium with 2% fetal bovine serum (FBS), 0.05% collagenase II and 0.05% DNase I (Sigma) for 40 minutes. at 37° C., shaken at 180 rpm. LP cells were filtered through 65 μm mesh and centrifuged at 4° C. at 500 g for 10 minutes. The present inventors prepared single cell suspensions from mouse colon by enzymatic digestion and analyzed by polychromatic flow cytometry. […] Data were acquired on an LSRII (BD Biosciences) or FACSCalibur instrument (Becton-Dickinson) with CellQuest software, with a MacsQuant instrument (Miltenyi, Bergisch Gladbach, Germany), and analyzed using BD FACSDiva 6 or FlowJo software (version 7.6.5, or version vX.0.7 Tree Star Inc) or MacsQuant. […] After staining for cell surface antigens, intracellular NO was detected by incubation of cells for 15 min at 37° C. with 10 μM DAF-FM diacetate followed by extensive washing, according to the manufacturer's instructions (Molecular Probes). […]

C57BL/6J.OlaaHsd mice = assay: DSS-induced colitis, treatment with arginine, citrulline, NaNO2, fisetin or citrulline plus fisetin; details: day 12; fisetin, citrulline or both vs DMSO control; FIG. 4C

Q: `O=c1c(O)c(-c2ccc(O)c(O)c2)oc2cc(O)ccc12` [fisetin, 3,7, 3′, 4′-tetrahydroxyflavone] was tested. Which As1 levels [1] did it give?
A: decrease

Q: And the NO levels [1]?
A: decrease

Q: What about the iNOS levels [1] of the same compound?
A: decrease

Q: What about the “As1 expression in distal colon sections (intestine, enterocytes)” value (As1) of the same compound?
A: up regulation

Q: What about the “As1 expression in distal colon sections (intestine, enterocytes)” value (As1; listed as fesitin) of the same compound?
A: upregulated

Q: What about the As1 levels [2] of the same compound?
A: decrease

Q: And the iNOS levels [2]?
A: not in the intestinal immune cells; also recorded: decrease

Q: What about the endoscopic colitis score (C57BL/6J.OlaaHsd mice) of the same compound?
A: significant improvement
